Source: patent US4292321A, “1,3,8-Triazaspirodecane-4-ones, pharmaceutical compositions thereof and method of use thereof” (Warner-Lambert Company, priority 1980, dated 1981)
Structures can show the parent of a compound that is named as a salt. Where two headings read alike, the source gives them in different places.

Biological target: T1, dopamine receptor (Bos taurus, UniProt P20288)
T1 construct: from tissue
Assay: 3H-haloperidol receptor binding assay (HRBA)
Settings: for inhibition at 0.01 µM / inhibition at 0.1 µM / inhibition at 0.001 µM: read-out: inhibition of 3H-haloperidol binding
Description: The compounds of this invention are useful because of their valuable pharmacological properties. […] As with other known neuroleptics, the compounds of this invention readily displace ^3 H-haloperidol from dopamine receptor binding sights in the ^3 H-haloperidol receptor binding assay (HRBA). […] The HRBA screen is described by I. Creese, D. R. Burt and S. H. Snyder, Science 142: 480 (1976) and by B. Seeman, T. Lee, M. Chani-Wong and K. Wong, Nature 261: 717 […].

T1 sequence (P20288 whole entry): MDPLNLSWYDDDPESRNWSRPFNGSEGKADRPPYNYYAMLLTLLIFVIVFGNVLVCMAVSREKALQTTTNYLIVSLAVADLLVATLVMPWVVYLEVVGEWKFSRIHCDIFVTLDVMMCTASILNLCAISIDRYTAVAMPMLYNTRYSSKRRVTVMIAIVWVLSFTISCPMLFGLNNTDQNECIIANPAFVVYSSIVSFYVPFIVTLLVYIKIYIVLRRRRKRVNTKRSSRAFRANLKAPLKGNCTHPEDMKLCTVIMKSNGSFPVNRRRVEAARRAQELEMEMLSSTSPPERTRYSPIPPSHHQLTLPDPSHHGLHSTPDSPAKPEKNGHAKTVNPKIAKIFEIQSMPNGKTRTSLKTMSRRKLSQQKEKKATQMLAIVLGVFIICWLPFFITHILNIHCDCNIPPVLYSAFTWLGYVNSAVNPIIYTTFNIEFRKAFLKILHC

| inhibition at 0.01 µM (10 n moles concentration) | inhibition at 0.1 µM (100 n moles concentration) | Structure (SMILES) | inhibition at 0.01 µM | inhibition at 0.1 µM | further results |
| --- | --- | --- | --- | --- | --- |
| – | – | O=C1NCN(c2ccccc2)C12CCN(CCCN(c1ccc(F)cc1)c1ccc(F)cc1)CC2 [Example 1, 8-[3-(Bis-[4-fluorophenyl]amino)propyl]-1-phenyl-1,3,8-triazaspiro[4,5]decan-4-one hydrobromide] | ~73% | ~77% | – |
| – | – | O=C1NCN(c2ccc(F)cc2)C12CCN(CCCN(c1ccccc1)c1ccccc1)CC2 [Example 2, 8-[3-(Diphenylamino)propyl]-1-(4-fluorophenyl)-1,3,8-triazaspiro[4,5]decan-4-one] | ~76% | ~85% | – |
| – | – | Cc1ccc(N2CNC(=O)C23CCN(CCCN(c2ccccc2)c2ccccc2)CC3)cc1 [Example 3, 8-[3-(Diphenylamino)propyl]-1-(4-methylphenyl)-1,3,8-triazaspiro[4,5]decan-4-one] | ~71% | ~87% | – |
| – | – | COc1ccc(N2CNC(=O)C23CCN(CCCN(c2ccccc2)c2ccccc2)CC3)cc1 [Example 4, 8-[3-(Diphenylamino)propyl]-1-(4-methoxyphenyl)-1,3,8-triazaspiro[4,5]decan-4-one] | ~67% | ~98% | – |
| – | – | O=C1NCN(c2ccc(F)cc2)C12CCN(CCCN(c1ccc(F)cc1)c1ccc(F)cc1)CC2 [Example 5, 8-[3-[Bis-(4-fluorophenyl)amino]propyl]-1-(4-fluorophenyl)-1,3,8-triazaspiro[4,5]decan-4-one] | ~84% | ~100% | – |
| ~78% | – | O=c1[nH]c2ccccc2n1C1CCN(CCCN(c2ccc(F)cc2)c2ccc(F)cc2)CC1 [Example 6, 1-(1[3-[Bis(4-fluorophenyl)amino]propyl]-4-piperidyl)-1,3-dihydro-2H-benzimidazol-2-one] | – | – | inhibition at 0.001 µM (1 n mole concentration): ~50% |
| – | – | O=c1[nH]c2ccccc2n1C1=CCN(CCCN(c2ccc(F)cc2)c2ccc(F)cc2)CC1 [Example 7, 1-[1-[3-[Bis(4-fluorophenyl)amino]propyl]-1,2,3,6-tetrahydro-4-pyridinyl]-1,3-dihydro-2H-benzimidazol-2-one hydrochloride] | ~22% | ~67% | – |
| ~28% | ~89% | Fc1ccc(N(CCCN2CCC(n3c(=S)[nH]c4ccccc43)CC2)c2ccc(F)cc2)cc1 [Example 8, 1-[1-(3-[Bis(4-fluorophenyl)amino]propyl)-4-piperidinyl]-1,3-dihydro-2H-benzimidazole-2-thione] | – | – | – |
| – | – | O=c1[nH]c2ccccc2n1C1CCN(CCCN(c2ccccc2)c2ccccc2)CC1 [Example 9, 1-[1-(3-(Diphenylamino]propyl)-4-piperidinyl]-1,3-dihydro-2H-benzimidazol-2-one hydrochloride] | ~68% | ~91% | – |
| – | – | O=c1[nH]c2ccccc2n1C1CCN(CCCN(c2ccccc2)c2ccc([N+](=O)[O-])cc2)CC1 [Example 10, 1,3-Dihydro-1-[1-(3-[(4-nitrophenyl)phenylamino]propyl)-4-piperidinyl]-2H-benzimidazol-2-one hydrochloride] | ~17% | ~75% | – |
| ~61% | ~91% | Cc1cccc(N(CCCN2CCC(n3c(=O)[nH]c4ccccc43)CC2)c2ccccc2)c1 [Example 11, 1,3-Dihydro-1-[1-(3-[(3-methylphenyl)phenylamino]propyl-4-piperidinyl]-2H-benzimidazol-2-one hydrochloride] | – | – | – |
| ~53% | ~93% | Cc1cc2[nH]c(=O)n(C3CCN(CCCN(c4ccccc4)c4ccccc4)CC3)c2cc1C [Example 13, 1-[1-(3-[Diphenylamino]propyl)-4-piperidiyl]-1,3-dihydro-5,6-dimethyl-2H-benzimidazol-2-one] | – | – | – |
| ~92% | ~100% | O=c1[nH]c2ccccc2n1C1CCN(CCCN(c2ccc(F)cc2)c2ccccc2F)CC1 [Example 14, 1,3-Dihydro-1-[1-[3-[(4-fluorophenyl)-(2-fluorophenyl)amino]propyl]-4-piperidinyl]-2H-benzimidazol-2-one] | – | – | inhibition at 0.001 µM (1 n mole concentration): ~56% |
| ~74% | ~100% | O=c1[nH]c2ccccc2n1C1CCN(CCCN(c2ccccc2)c2ccc(F)cc2)CC1 [Example 15, 1,3-Dihydro-1-[1-[3-[(4-fluorophenyl)phenylamino]propyl]-4-piperidinyl]-2H-benzimidazol-2-one] | – | – | – |
| ~6% | ~60% | Cc1cc2c(cc1C)n(C1CCN(CCCN(c3ccccc3)c3ccccc3)CC1)c(=O)n2C [Example 16, 1-[1-([3-Diphenylamino]propyl)-4-piperidinyl]-1,3-dihydro-3,5,6-trimethyl-2H-benzimidazol-2-one butenedioate] | – | – | – |
| ~85% | ~100% | Cc1cc2[nH]c(=O)n(C3CCN(CCCN(c4ccc(F)cc4)c4ccc(F)cc4)CC3)c2cc1C [Example 17, 1-[1-[3-[Bis-(4-fluorophenyl)amino]propyl]-4-piperidyl]-1,3-dihydro-5,6-dimethyl-2H-benzimidazol-2-one] | – | – | inhibition at 0.001 µM (1 n mole concentration): ~29% |

| inhibition at 0.01 µM (10 n moles concentration) | inhibition at 0.1 µM (100 n moles concentration) | Structure (SMILES) | inhibition at 0.01 µM | inhibition at 0.1 µM | further results |
| --- | --- | --- | --- | --- | --- |
| – | – | OC1(c2cccc(F)c2)CCN(CCCN(c2ccccc2)c2ccccc2)CC1 [Example 18, 1-[3-(Diphenylamino)propyl]-4-(3-fluorophenyl)-4-piperidinol ethanedioate] | ~23% | ~83% | – |
| – | – | OC1(c2ccc(F)cc2)CCN(CCCN(c2ccc(F)cc2)c2ccc(F)cc2)CC1 [Example 19, 4-(4-Fluorophenyl)-1-(3-[bis(4-fluorophenyl)amino]propyl)-4-piperidinol hydrochloride] | ~82% | – | inhibition at 0.001 µM: ~25% |
| – | – | OC1(c2ccc(Cl)cc2)CCN(CCCN(c2ccc(F)cc2)c2ccc(F)cc2)CC1 [Example 20, 1-(3-[Bis(4-fluorophenyl)amino]propyl)-4-(4-chlorophenyl)-4-piperidinol ethanedioate] | ~74% | ~100% | – |
| ~8% | ~48% | C1=C(Oc2ccccc2)CCN(CCCN(c2ccccc2)c2ccccc2)C1 [Example 21, 3,6-Dihydro-4-phenoxy-N,N-diphenyl-1(2H)-pyridinepropanamine ethanedioate.] | – | – | – |
| – | – | c1ccc(OC2CCN(CCCN(c3ccccc3)c3ccccc3)CC2)cc1 [Example 22, 4-Phenoxy-N,N-diphenyl-1-piperidinepropanamine ethanedioate] | ~7% | ~59% | – |
| ~6% | ~24% | FC(F)(F)c1cccc(OC2=CCN(CCCN(c3ccccc3)c3ccccc3)CC2)c1 [Example 23, 3,6-Dihydro-N,N-diphenyl-4-[(3-trifluoromethyl)phenoxy]-1(2H)-pyridinepropanamine ethanedioate] | – | – | – |
| – | – | FC(F)(F)c1cccc(OC2CCN(CCCN(c3ccccc3)c3ccccc3)CC2)c1.O=C(O)C(=O)O [Example 24, N,N-diphenyl-4-[3-(trifluoromethyl)phenoxy]-1-piperidinepropanamine ethanedioate] | – | ~8% | inhibition of 3H-haloperidol binding (10 n moles concentration): no inhibition |
| ~43% | – | Fc1ccc(OC2=CCN(CCCN(c3ccc(F)cc3)c3ccc(F)cc3)CC2)cc1 [Example 25, 4-(4-Fluorophenoxy)-N,N-bis(4-fluorophenyl)-1,2,3,6-tetrahydro-1-pyridinepropanamine-d-2,3-dihydroxybutanedioate] | – | – | inhibition of 3H-haloperidol binding (1 n mole concentration): no inhibition |
| – | – | Clc1ccc(OC2=CCN(CCCN(c3ccccc3)c3ccccc3)CC2)cc1Cl.O=C(O)C(=O)O [Example 26, 4-(3,4-Dichlorophenoxy)-3,6-dihydro-N,N-diphenyl-1(2H)-pyridinepropanamine ethanedioate] | – | ~26% | inhibition of 3H-haloperidol binding (10 n moles concentration): no inhibition |
| – | ~12% | Fc1ccc(N2CCN(CCCN(c3ccccc3)c3ccccc3)CC2)cc1 [Example 31, 4-(4-Fluorophenyl)-N,N-diphenyl-1-piperazinepropanamine] | – | – | inhibition of 3H-haloperidol binding (10 n moles concentration): no inhibition |
| – | – | c1ccc(CN2CCN(CCCN(c3ccccc3)c3ccccc3)CC2)cc1 [Example 32, N,N-diphenyl-4-(phenylmethyl)-1-piperazinepropanamine ethanedioate] | ~16% | ~33% | – |
| – | – | CC(C)Sc1ccccc1N1CCN(CCCN(c2ccccc2)c2ccccc2)CC1.Cl [Example 33, 4-[2-[(1-Methylethyl)thio]phenyl]-N,N-diphenyl-1-piperazinepropanamine hydrochloride] | – | ~28% | inhibition of 3H-haloperidol binding (10 n moles concentration): no inhibition |
| – | – | CCCSc1ccccc1N1CCN(CCCN(c2ccccc2)c2ccccc2)CC1 [Example 34, N,N-diphenyl-4-[2-(propylthio)phenyl]-1-piperazinepropanamine ethanedioate] | ~6% | ~64% | – |
| – | – | COc1ccccc1N1CCN(CCCN(c2ccc(F)cc2)c2ccc(F)cc2)CC1 [Example 35, N,N-bis(4-fluorophenyl)-4-(2-methoxyphenyl)-1-piperazinepropanamine dihydrochloride] | ~28% | ~79% | – |
| – | – | OCCN1CCN(CCCN(c2ccc(F)cc2)c2ccc(F)cc2)CC1 [Example 36, 4-[3-[Bis(4-fluorophenyl)amino]propyl]-1-piperazineethanol dihydrochloride] | ~21% | ~62% | – |
| – | – | Cl.Cl.Fc1ccc(N(CCCN2CCN(c3ccccc3)CC2)c2ccc(F)cc2)cc1 [Example 37, N,N-bis(4-fluorophenyl)-4-phenyl-1-piperazinepropanamine dihydrochloride] | – | ~37% | inhibition of 3H-haloperidol binding (10 n moles concentration): no inhibition |
